System: TLR7
Experiment: TLR-induced cytokine release in human peripheral blood mononuclear cells (PBMC), TNF-alpha by ELISA
Assay type: cell-based
Settings: human PBMC incubated 18 hours with test substance in presence of TLR7 ligand; TNF-alpha in supernatant by ELISA; read-out: EC50 (TNF-α TLR7)
Experimental: TLR-Induced Cytokine Release in Human “Peripheral Blood Mononuclear Cells” (PBMC)
PBMCs isolated from human whole blood are stimulated using a TLR ligand.
The cytokine determination is carried out by means of ELISA kits; a proliferation/cell metabolism determination is carried out using Alamar Blue.
For the cell preparation, about 200 ml of blood are treated with an anticoagulant (e.g. citrate Monovettes). Per Leucosep tube, 15 ml of Histopaque (room temperature, RT) are poured in and forced downwards through the inserted frit by brief initial centrifugation (one minute at 1000×g, RT). 20 ml of blood are added to the tubes prepared in this way and centrifuged at 800×g for 15 minutes (RT). After centrifugation, the following layering results from the top to the bottom:
plasma-PBMC-Histopaque-filter disc-Histopaque-erythrocytes and granulocytes. The supernatant plasma is aspirated. The PBMC are transferred together with the underlying Histopaque to a new 50 ml tube, the contents of two Leucosep tubes always being added to one 50 ml tube. The 50 ml tubes are then filled to 50 ml with PBS. This cell suspension is centrifuged at 300×g (RT) for 10 minutes.
The liquid supernatant is tipped off and the cell pellet is resuspended with a little PBS and subsequently filled to 50 ml with PBS. This washing step is repeated twice. The resulting pellet is taken up in a defined volume of medium (with additives). For the testing of the substances, PBMC are incubated for 18 hours with titrated concentrations of the test substances, e.g. in the presence or absence of TLR7 or TLR9 ligands. On the next day, the supernatants are investigated for the content of TNF-alpha or other cyto- or chemokines by means of specific ELISA. The metabolic activity of the treated cells is determined with the aid of Alamar Blue.

EC50 [nM]	Structure (SMILES)
490	Cc1ccc(NC(=O)c2csc(-c3cccnc3)n2)c(C(N)=O)c1 [Example 1.4, N-[2-(Aminocarbonyl)-4-methylphenyl]-2-(3-pyridinyl)-4-thiazolecarboxamide]
5200	NC(=O)c1ncccc1NC(=O)c1csc(-c2ccncc2)n1 [Example 1.21, 3-[(2-Pyridin-4-ylthiazole-4-carbonyl)amino]pyridine-2-carboxamide]
1300	Cc1ccc(C(N)=O)c(NC(=O)c2csc(-c3ccc(N)nc3)n2)c1 [Example 2.4, N-[2-(Aminocarbonyl)-5-methylphenyl]-2-(6-aminopyridin-3-yl)thiazole-4-carboxamide]
1800	NC(=O)c1ncccc1NC(=O)c1csc(-c2cccnc2)n1 [Example 1.7, 3-[(2-Pyridin-3-ylthiazole-4-carbonyl)amino]pyridine-2-carboxamide]
2600	CC(C)(C)c1cc(NC(=O)c2csc(-c3cccnc3)n2)c(C(N)=O)s1 [Example 1.17, N-[2-(Aminocarbonyl)-5-(1,1-dimethylethyl)-3-thienyl]-2-(3-pyridinyl)-4-thiazolecarboxamide]
30000	Cc1ccc(C(N)=O)c(NC(=O)c2csc(-c3cnccc3C(F)(F)F)n2)c1 [Example 1.11, N-[2-(Aminocarbonyl)-5-methylphenyl]-2-[4-(trifluoromethyl)-3-pyridinyl]-4-thiazolecarboxamide]
1100	Cc1ccc(C(N)=O)c(NC(=O)c2csc(-c3ccncc3)n2)c1 [Example 1.8, N-[2-(Aminocarbonyl)-5-methylphenyl]-(4-pyridinyl)-4-thiazolecarboxamide]
1300	NC(=O)c1ccccc1NC(=O)c1csc(-c2ccncc2)n1 [Example 1.3, N-[2-(Aminocarbonyl)phenyl]-2-(4-pyridinyl)-4-thiazolecarboxamide]
900	NC(=O)c1ccccc1NC(=O)c1csc(-c2cccnc2)n1 [Example 1.1, N-[2-(Aminocarbonyl)phenyl]-2-(3-pyridinyl)-4-thiazolecarboxamide]
1900	NC(=O)c1cc(F)ccc1NC(=O)c1csc(-c2cccnc2)n1 [Example 1.18, N-[2-(Aminocarbonyl)-4-fluorophenyl]-2-(3-pyridinyl)-4-thiazolecarboxamide]
4100	Cc1ccc(C(N)=O)c(NC(=O)c2csc(-c3cccnc3)n2)c1 [Example 1.5, N-[2-(Aminocarbonyl)-5-methylphenyl]-2-(3-pyridinyl)-4-thiazolecarboxamide]
7000	NC(=O)c1ccncc1NC(=O)c1csc(-c2ccncc2)n1 [Example 1.22, 3-[(2-Pyridin-4-ylthiazole-4-carbonyl)amino]isonicotinamide]
30000	NC(=O)c1cc(Cl)ccc1NC(=O)c1csc(-c2cccnc2)n1 [Example 1.6, N-[2-(Aminocarbonyl)-4-chlorophenyl]-2-(3-pyridinyl)-4-thiazolecarboxamide]
2400	Cn1ncc(NC(=O)c2csc(-c3ccncc3)n2)c1C(N)=O [Example 1.2, N-[5-(Aminocarbonyl)-1-methyl-1H-pyrazol-4-yl]-2-(4-pyridinyl)-4-thiazolecarboxamide]

Reference: US8148411B2, “2-hetarylthiazole-4-carboxamide derivatives, their preparation and use as pharmaceuticals” (Bayer Pharma Aktiengesellschaft, priority 2007, dated 2012)
